Data as given in patent publication US20170232083A1, “METHODS OF DIAGNOSIS AND TREATMENT OF CELIAC DISEASE IN CHILDREN” (priority 2014, published 2017).
Where “and” joins values, the source holds several entries; their conditions need not be identical. Equal values may be shown once. Non-standard residues stand in square brackets, D forms with d. pGlu = O=C1CC[C@@H](C(=O)O)N1

Test system: peripheral blood mononuclear cells obtained from children
Assay: IFNγ ELISpot PBMC assay after oral wheat bread challenge (Examples 1-2)
Type: cell-based, human
Experimental: An oral wheat bread challenge was conducted in DQ2.5+ children and adolescents having Celiac disease. The age ranges were 3-5, 6-10 and 11-18 years of age. An ELISpot peripheral blood mononucleated cell (PBMC) assay was performed to measure the level of IFNγ released by the PBMCs after being contacted with peptide 1, peptide 2, peptide 3, or a combination thereof. The identities of peptides 1, 2, and 3 are shown below.
The values the rows starting from “Blank (SFU)” and ending at “Pept-1/2/3 (150)” are all spot forming unit (SFU) values. The values in the parentheses in the first column are the concentration of each peptide in micrograms that were added to the PBMCs (e.g., Pept-1 50=50 micrograms of Peptide 1, Pept-1/2/3 50=50 micrograms of each of Peptide 1, Peptide 2, and Peptide 3). Pept-1=Peptide 1, Pept-2=Peptide 2, Pept-3=Peptide 3, the amino acid identities of which are mentioned above. D-Gli=deamidated gliadin. WT-Gli=wild-type gliadin. D-Glut=deamidated gluten. WT-Glut=wild-type gluten.
IFNγ ELISpot responses in 9 older children (11-17 yo) and 6 younger children (3-10 yo) were stimulated by the mixture of peptides 1, 2, and 3 described in Example 1 (each peptide at a concentration of 25 ug/mL) or stimulated by deamidated gliadin (100 ug/mL) after 3-day wheat challenge (r2=0.8, p<0.0001). The ELISpot responses were similar using either the peptide mixture of the deamidated gliadin (FIG. 1).

## ELQPFPQPELPYPQPQ ([pGlu]LQPFPQPELPYPQPQ-NH2) [Peptide 1]
  most active peptides in gliadin for children: most active
Subject B, 5.0 × 10^5 cells per well, 25 micrograms, listed as Pept-1
  SFU, IFNγ ELISpot: 4 SFU and 3 SFU
Subject B, 5.0 × 10^5 cells per well, 100 micrograms, listed as Pept-1
  SFU, IFNγ ELISpot: 3 SFU and 2 SFU
Subject C, 5.0 × 10^5 cells per well, 25 micrograms, listed as Pept-1
  SFU, IFNγ ELISpot: 10 SFU and 5 SFU
Subject C, 5.0 × 10^5 cells per well, 50 micrograms, listed as Pept-1
  SFU, IFNγ ELISpot: 6 SFU and 5 SFU
Subject D, 4.0 × 10^5 cells per well, 25 micrograms, listed as Pept-1
  SFU, IFNγ ELISpot: 28 SFU and 32 SFU
Subject D, 4.0 × 10^5 cells per well, 50 micrograms, listed as Pept-1
  SFU, IFNγ ELISpot: 23 SFU and 31 SFU
Subject D, 4.0 × 10^5 cells per well, 100 micrograms, listed as Pept-1
  SFU, IFNγ ELISpot: 32 SFU and 25 SFU
Subject E, 5.0 × 10^5 cells per well, 25 micrograms, listed as Pept-1
  SFU, IFNγ ELISpot: 177 SFU and 139 SFU
Subject E, 5.0 × 10^5 cells per well, 50 micrograms, listed as Pept-1
  SFU, IFNγ ELISpot: 160 SFU and 144 SFU
Subject E, 5.0 × 10^5 cells per well, 100 micrograms, listed as Pept-1
  SFU, IFNγ ELISpot: 139 SFU and 153 SFU
Subject F, 5.0 × 10^5 cells per well, 25 micrograms, listed as Pept-1
  SFU, IFNγ ELISpot: 151 SFU and 146 SFU
Subject F, 5.0 × 10^5 cells per well, 50 micrograms, listed as Pept-1
  SFU, IFNγ ELISpot: 186 SFU and 147 SFU
Subject F, 5.0 × 10^5 cells per well, 100 micrograms, listed as Pept-1
  SFU, IFNγ ELISpot: 166 SFU and 138 SFU
Subject G, 4.0 × 10^5 cells per well, 25 micrograms, listed as Pept-1
  SFU, IFNγ ELISpot: 8 SFU and 14 SFU
Subject G, 4.0 × 10^5 cells per well, 50 micrograms
  SFU, IFNγ ELISpot: 10 SFU
Subject H, 3.5 × 10^5 cells per well, 25 micrograms, listed as Pept-1
  SFU, IFNγ ELISpot: 14 SFU and 13 SFU
Subject H, 3.5 × 10^5 cells per well, 50 micrograms
  SFU, IFNγ ELISpot: 8 SFU
Subject H, 3.5 × 10^5 cells per well, 100 micrograms, listed as Pept-1
  SFU, IFNγ ELISpot: 9 SFU and 8 SFU
Subject I, 5.0 × 10^5 cells per well, 25 micrograms, listed as Pept-1
  SFU, IFNγ ELISpot: 6 SFU and 7 SFU
Subject J, 5.0 × 10^5 cells per well, 25 micrograms, listed as Pept-1
  SFU, IFNγ ELISpot: 103 SFU and 109 SFU
Subject J, 5.0 × 10^5 cells per well, 50 micrograms, listed as Pept-1
  SFU, IFNγ ELISpot: 107 SFU and 92 SFU
Subject J, 5.0 × 10^5 cells per well, 100 micrograms, listed as Pept-1
  SFU, IFNγ ELISpot: 109 SFU and 111 SFU
Subject K, 3.2 × 10^5 cells per well, 25 micrograms, listed as Pept-1
  SFU, IFNγ ELISpot: 33 SFU and 28 SFU
Subject K, 3.2 × 10^5 cells per well, 50 micrograms, listed as Pept-1
  SFU, IFNγ ELISpot: 28 SFU and 20 SFU
Subject K, 3.2 × 10^5 cells per well, 100 micrograms, listed as Pept-1
  SFU, IFNγ ELISpot: 24 SFU and 38 SFU
Subject L, 3.5 × 10^5 cells per well, 25 micrograms, listed as Pept-1
  SFU, IFNγ ELISpot: 10 SFU and 9 SFU
Subject L, 3.5 × 10^5 cells per well, 100 micrograms, listed as Pept-1
  SFU, IFNγ ELISpot: 14 SFU and 7 SFU
Subject M, 2.3 × 10^5 cells per well, 25 micrograms, listed as Pept-1
  SFU, IFNγ ELISpot: 34 SFU and 18 SFU
Subject M, 2.3 × 10^5 cells per well, 50 micrograms, listed as Pept-1
  SFU, IFNγ ELISpot: 32 SFU and 30 SFU
Subject M, 2.3 × 10^5 cells per well, 100 micrograms, listed as Pept-1
  SFU, IFNγ ELISpot: 45 SFU and 40 SFU
Subject N, 2.4 × 10^5 cells per well, 25 micrograms, listed as Pept-1
  SFU, IFNγ ELISpot: 4 SFU and 6 SFU
Subject N, 2.4 × 10^5 cells per well, 100 micrograms, listed as Pept-1
  SFU, IFNγ ELISpot: 5 SFU and 3 SFU
Subject P, 3.0 × 10^5 cells per well, 0.1 micrograms, listed as Pept-1
  SFU, IFNγ ELISpot: 16 SFU and 15 SFU
Subject P, 3.0 × 10^5 cells per well, 0.5 micrograms, listed as Pept-1
  SFU, IFNγ ELISpot: 21 SFU and 24 SFU
Subject P, 3.0 × 10^5 cells per well, 1 micrograms, listed as Pept-1
  SFU, IFNγ ELISpot: 49 SFU and 31 SFU
Subject P, 3.0 × 10^5 cells per well, 2.5 micrograms, listed as Pept-1
  SFU, IFNγ ELISpot: 45 SFU
Subject Q, 3.0 × 10^5 cells per well, 0.1 micrograms, listed as Pept-1
  SFU, IFNγ ELISpot: 12 SFU and 18 SFU
Subject Q, 3.0 × 10^5 cells per well, 0.5 micrograms, listed as Pept-1
  SFU, IFNγ ELISpot: 34 SFU and 32 SFU
Subject Q, 3.0 × 10^5 cells per well, 1 micrograms, listed as Pept-1
  SFU, IFNγ ELISpot: 45 SFU and 36 SFU
Subject R, 3.0 × 10^5 cells per well, 0.1 micrograms, listed as Pept-1
  SFU, IFNγ ELISpot: 12 SFU and 16 SFU
Subject R, 3.0 × 10^5 cells per well, 0.5 micrograms, listed as Pept-1
  SFU, IFNγ ELISpot: 21 SFU and 26 SFU
Subject R, 3.0 × 10^5 cells per well, 1 micrograms, listed as Pept-1
  SFU, IFNγ ELISpot: 22 SFU and 21 SFU
Subject S, 3.0 × 10^5 cells per well, 0.1 micrograms, listed as Pept-1
  SFU, IFNγ ELISpot: 2 SFU and 4 SFU
Subject S, 3.0 × 10^5 cells per well, 0.5 micrograms, listed as Pept-1
  SFU, IFNγ ELISpot: 1 SFU and 2 SFU
Subject S, 3.0 × 10^5 cells per well, 1 micrograms, listed as Pept-1
  SFU, IFNγ ELISpot: 1 SFU and 2 SFU
Subject T, 3.0 × 10^5 cells per well, 0.1 micrograms, listed as Pept-1
  SFU, IFNγ ELISpot: 20 SFU and 18 SFU
Subject T, 3.0 × 10^5 cells per well, 0.5 micrograms, listed as Pept-1
  SFU, IFNγ ELISpot: 34 SFU and 31 SFU
Subject T, 3.0 × 10^5 cells per well, 1 micrograms, listed as Pept-1
  SFU, IFNγ ELISpot: 55 SFU and 60 SFU
Subject U, 3.0 × 10^5 cells per well, 0.1 micrograms, listed as Pept-1
  SFU, IFNγ ELISpot: 6 SFU and 7 SFU
Subject U, 3.0 × 10^5 cells per well, 0.5 micrograms, listed as Pept-1
  SFU, IFNγ ELISpot: 18 SFU and 20 SFU
Subject U, 3.0 × 10^5 cells per well, 1 micrograms, listed as Pept-1
  SFU, IFNγ ELISpot: 33 SFU and 24 SFU
General increase in SFU in each child, Tables 2-5
  T cell response in PBMC samples from children after gluten challenge: induce a T cell response
